In patent US9695155B2, “Herbicidal substituted pyrimidinyloxy benzene compounds” (E. I. DU PONT DE NEMOURS AND COMPANY, priority 2013, dated 2017):

What was measured:
deadnettle = test: Test C postemergence; format: in vivo, Lamium amplexicaule; conditions: for Plant response rating (0 to 100), Deadnettle: postemergence; for Plant response rating, Deadnettle: Postemergence, scale 0 to 100 (0 no effect, 100 complete control)
Text: (§1) Seeds of plant species selected from blackgrass (Alopecurus myosuroides), Italian ryegrass (Lolium multiflorum), wheat, winter (winter wheat, Triticum aestivum), galium (catchweed bedstraw, Galium aparine), corn (Zea mays), large (Lg) crabgrass (Digitaria sanguinalis), giant foxtail (Setaria faberii), johnsongrass (Sorghum halepense), lambsquarters (Chenopodium album), morningglory (Ipomoea coccinea), yellow nutsedge (Cyperus esculentus), pigweed (Amaranthus retroflexus), ragweed (common ragweed, Ambrosia elatior), soybean (Glycine max), barnyardgrass (Echinochloa crus-galli), oilseed rape (Brassica napus), waterhemp (common waterhemp, Amaranthus rudis), kochia (Kochia scoparia), wild oat (Avena fatua), surinam grass (Brachiaria decumbens), foxtail, green (green foxtail, Setaria viridis), goosegrass (Eleusine indica), bromegrass, downy (downy bromegrass, Bromus tectorum), nightshade (eastern black nightshade, Solanum ptycanthum), cocklebur (common cocklebur, Xanthium strumarium), cupgrass, woolly (woolly cupgrass, Eriochloa villosa), bermudagrass (Cynodon dactylon), sunflower, (common oilseed sunflower, Helianthus annuus), Russian thistle (Salsola kali), and velvetleaf (Abutilon theophrasti) were planted into a blend of loam soil and sand and treated preemergence with test chemicals formulated in a non-phytotoxic solvent mixture which included a surfactant.
(§2) At the same time, plants selected from these crop and weed species and also barley, winter (winter barley, Hordeum vulgare), windgrass (Apera spica-venti), chickweed (common chickweed, Stellaria media), deadnettle (henbit deadnettle, Lamium amplexicaule), and canarygrass (littleseed canarygrass, Phalaris minor) were planted in pots containing Redi-Earth® planting medium (Scotts Company, 14111 Scottslawn Road, Marysville, Ohio 43041) comprising spaghnum peat moss, vermiculite, wetting agent and starter nutrients and treated with postemergence applications of test chemicals formulated in the same manner. Plants ranged in height from 2 to 18 cm (1- to 4-leaf stage) for postemergence treatments. Treated plants and controls were maintained in a greenhouse for 13 to 15 days, after which time all species were compared to controls and visually evaluated. Plant response ratings, summarized in Table C, are based on a scale of 0 to 100 where 0 is no effect and 100 is complete control. A dash (-) response means no test result.

Russian thistle = test: Test C preemergence; format: in vivo, Salsola kali; conditions: for Russian Thistle plant response rating: preemergence, scale 0 (no effect) to 100 (complete control); for Plant response rating, Russian Thistle: Preemergence, 31 g ai/ha, scale 0 to 100, 0 no effect, 100 complete control
Text: as §1, §2

barnyardgrass = test: Test G flood (paddy water application); format: in vivo, Echinochloa crus-galli; conditions: after 21 days, scale 0 to 100, 0 no effect, 100 complete control
Text: (§3) Three plastic pots (ca. 16-cm diameter) per rate were partially filled with sterilized Tama silt loam soil comprising a 35:50:15 ratio of sand, silt and clay and 2.6% organic matter. Separate plantings for each of the three pots were as follows. Seeds from the U.S. of monochoria (Monochoria vaginalis), sedge, umbrella (small-flower umbrella sedge, Cyperus difformis), hardstem bulrush (Scirpus juncoides), and redstem (purple redstem, Ammannia coccinea), were planted into one 16-cm pot for each rate. Seeds from the U.S. of rice flatsedge (Cyperus iria), bearded sprangletop (Leptochloa fascicularis), one stand of 9 or 10 water seeded rice seedlings (Oryza sativa cv. ‘Japonica—M202’), and two stands of 3 or 4 transplanted rice seedlings (Oryza sativa cv. ‘Japonica—M202’) were planted into one 16-cm pot for each rate. Seeds from the U.S. of barnyardgrass (Echinochloa crus-galli), and late watergrass (Echinochloa oryzicola) were planted into one 16-cm pot for each rate. Plantings were sequential so that crop and weed species were at the 2.0 to 2.5-leaf stage at time of treatment.
(§4) Potted plants were grown in a greenhouse with day/night temperature settings of 30/27° C., and supplemental balanced lighting was provided to maintain a 16-hour photoperiod. Test pots were maintained in the greenhouse until test completion.
(§5) At time of treatment, test pots were flooded to 3 cm above the soil surface, treated by application of test compounds directly to the paddy water, and then maintained at that water depth for the duration of the test. Effects of treatments on rice and weeds were visually evaluated by comparison to untreated controls after 21 days. Plant response ratings, summarized in Table G, are based on a scale of 0 to 100 where 0 is no effect and 100 is complete control. A dash (-) response means no test result.

hardstem bulrush = test: Test G flood (paddy water application); format: in vivo, Scirpus juncoides; conditions: after 21 days, scale 0 to 100, 0 no effect, 100 complete control
Text: as §3, §4, §5

rice flatsedge = test: Test G flood (paddy water application); format: in vivo, Cyperus iria; conditions: after 21 days, scale 0 to 100, 0 no effect, 100 complete control
Text: as §3, §4, §5

monochoria = test: Test G flood (paddy water application); format: in vivo, Monochoria vaginalis; conditions: after 21 days, scale 0 to 100, 0 no effect, 100 complete control
Text: as §3, §4, §5

redstem = test: Test G flood (paddy water application); format: in vivo, Ammannia coccinea; conditions: after 21 days, scale 0 to 100, 0 no effect, 100 complete control
Text: as §3, §4, §5

[1] = system: transplanted rice seedlings; test: Test G flood (paddy water application); format: in vivo, Oryza sativa cv. ‘Japonica—M202’; conditions: after 21 days, scale 0 to 100, 0 no effect, 100 complete control
Text: as §3, §4, §5

[2] = system: water seeded rice seedlings; test: Test G flood (paddy water application); format: in vivo, Oryza sativa cv. ‘Japonica—M202’; conditions: after 21 days, scale 0 to 100, 0 no effect, 100 complete control
Text: as §3, §4, §5

sedge, umbrella = test: Test G flood (paddy water application); format: in vivo, Cyperus difformis; conditions: after 21 days, scale 0 to 100, 0 no effect, 100 complete control
Text: as §3, §4, §5

bearded sprangletop = test: Test G flood (paddy water application); format: in vivo, Leptochloa fascicularis; conditions: after 21 days, scale 0 to 100, 0 no effect, 100 complete control
Text: as §3, §4, §5

late watergrass = test: Test G flood (paddy water application); format: in vivo, Echinochloa oryzicola; conditions: after 21 days, scale 0 to 100, 0 no effect, 100 complete control
Text: as §3, §4, §5

## Fc1cnc(Oc2ccccc2-n2cc(Br)cn2)nc1 [Compound 10, 2-[2-(4-bromo-1H-pyrazol-1-yl)phenoxy]-5-fluoropyrimidine]
deadnettle; 125 g ai/ha
  Plant response rating (0 to 100), Deadnettle: 80
deadnettle; 250 g ai/ha
  Plant response rating (0 to 100), Deadnettle: 95
deadnettle; 31 g ai/ha, 13 to 15 days
  Plant response rating, Deadnettle: 50
deadnettle; 62 g ai/ha
  Plant response rating, Deadnettle: 60

## Clc1cnc(Oc2ccccc2-n2cc(Br)cn2)nc1 [Compound 7, 2-[2-(4-bromo-1H-pyrazol-1-yl)phenoxy]-5-chloropyrimidine]
deadnettle; 125 g ai/ha
  Plant response rating (0 to 100), Deadnettle: 98
deadnettle; 250 g ai/ha
  Plant response rating (0 to 100), Deadnettle: 100
deadnettle; 31 g ai/ha, 13 to 15 days
  Plant response rating, Deadnettle: 85
deadnettle; 62 g ai/ha
  Plant response rating, Deadnettle: 98

## FC(F)(F)c1cnn(-c2ccccc2Oc2ncc(Cl)cn2)c1 [Compound 16]
Russian thistle; 62 g ai/ha
  Russian Thistle plant response rating: 80
Russian thistle; 125 g ai/ha
  Russian Thistle plant response rating: 90
Russian thistle; 250 g ai/ha
  Russian Thistle plant response rating: 90
Russian thistle
  Plant response rating, Russian Thistle: 0
barnyardgrass; 32 g ai/ha
  Plant response rating, Barnyardgrass: 0
barnyardgrass; 64 g ai/ha
  Plant response rating, Barnyardgrass: 40
barnyardgrass; 125 g ai/ha
  Plant response rating, Barnyardgrass: 100
barnyardgrass; 250 g ai/ha
  Plant response rating, Barnyardgrass: 100
Hardstem bulrush; 32 g ai/ha
  Plant response rating, Bulrush, Hardstem: 40
Hardstem bulrush; 64 g ai/ha
  Plant response rating, Bulrush, Hardstem: 50
Hardstem bulrush; 125 g ai/ha
  Plant response rating, Bulrush, Hardstem: 65
Hardstem bulrush; 250 g ai/ha
  Plant response rating, Bulrush, Hardstem: 80
Rice flatsedge; 32 g ai/ha
  Plant response rating, Flatsedge, Rice: 40
Rice flatsedge; 64 g ai/ha
  Plant response rating, Flatsedge, Rice: 85
Rice flatsedge; 125 g ai/ha
  Plant response rating, Flatsedge, Rice: 100
Rice flatsedge; 250 g ai/ha
  Plant response rating, Flatsedge, Rice: 100
monochoria; 32 g ai/ha
  Plant response rating, Monochoria: 95
monochoria; 64 g ai/ha
  Plant response rating, Monochoria: 95
monochoria; 125 g ai/ha
  Plant response rating, Monochoria: 100
monochoria; 250 g ai/ha
  Plant response rating, Monochoria: 100
redstem; 32 g ai/ha
  Plant response rating, Redstem: 0
redstem; 64 g ai/ha
  Plant response rating, Redstem: 60
redstem; 125 g ai/ha
  Plant response rating, Redstem: 85
redstem; 250 g ai/ha
  Plant response rating, Redstem: 95
[1]; 32 g ai/ha
  Plant response rating, Rice, Transplanted: 0
[2]; 32 g ai/ha
  Plant response rating, Rice, Water Seeded: 50
[2]; 64 g ai/ha
  Plant response rating, Rice, Water Seeded: 90
[2]; 125 g ai/ha
  Plant response rating, Rice, Water Seeded: 100
[2]; 250 g ai/ha
  Plant response rating, Rice, Water Seeded: 100
sedge, umbrella; 32 g ai/ha
  Plant response rating, Sedge, Umbrella: 0
sedge, umbrella; 64 g ai/ha
  Plant response rating, Sedge, Umbrella: 60
sedge, umbrella; 125 g ai/ha
  Plant response rating, Sedge, Umbrella: 100
sedge, umbrella; 250 g ai/ha
  Plant response rating, Sedge, Umbrella: 100
Bearded sprangletop; 32 g ai/ha
  Plant response rating, Sprangletop, Brdd.: 65
Bearded sprangletop; 64 g ai/ha
  Plant response rating, Sprangletop, Brdd.: 100
Bearded sprangletop; 125 g ai/ha
  Plant response rating, Sprangletop, Brdd.: 100
Bearded sprangletop; 250 g ai/ha
  Plant response rating, Sprangletop, Brdd.: 100
Late watergrass; 32 g ai/ha
  Plant response rating, Watergrass, Late: 0
Late watergrass; 64 g ai/ha
  Plant response rating, Watergrass, Late: 0
Late watergrass; 125 g ai/ha
  Plant response rating, Watergrass, Late: 0
Late watergrass; 250 g ai/ha
  Plant response rating, Watergrass, Late: 80

## FC(F)(F)c1cnn(-c2ccccc2Oc2ncc(Br)cn2)c1 [Compound 18, 5-bromo-2-[2-[4-(trifluoromethyl)-1H-pyrazol-1-yl]phenoxy]pyrimidine]
Russian thistle; 62 g ai/ha
  Russian Thistle plant response rating: 0
Russian thistle; 125 g ai/ha
  Russian Thistle plant response rating: 95
Russian thistle; 250 g ai/ha
  Russian Thistle plant response rating: 95
Russian thistle
  Plant response rating, Russian Thistle: 0
barnyardgrass; 32 g ai/ha
  Plant response rating, Barnyardgrass: 0
barnyardgrass; 64 g ai/ha
  Plant response rating, Barnyardgrass: 20
barnyardgrass; 125 g ai/ha
  Plant response rating, Barnyardgrass: 35
barnyardgrass; 250 g ai/ha
  Plant response rating, Barnyardgrass: 100
Hardstem bulrush; 32 g ai/ha
  Plant response rating, Bulrush, Hardstem: 0
Hardstem bulrush; 64 g ai/ha
  Plant response rating, Bulrush, Hardstem: 0
Hardstem bulrush; 125 g ai/ha
  Plant response rating, Bulrush, Hardstem: 0
Hardstem bulrush; 250 g ai/ha
  Plant response rating, Bulrush, Hardstem: 85
Rice flatsedge; 32 g ai/ha
  Plant response rating, Flatsedge, Rice: 30
Rice flatsedge; 64 g ai/ha
  Plant response rating, Flatsedge, Rice: 75
Rice flatsedge; 125 g ai/ha
  Plant response rating, Flatsedge, Rice: 100
Rice flatsedge; 250 g ai/ha
  Plant response rating, Flatsedge, Rice: 100
monochoria; 32 g ai/ha
  Plant response rating, Monochoria: 95
monochoria; 64 g ai/ha
  Plant response rating, Monochoria: 95
monochoria; 125 g ai/ha
  Plant response rating, Monochoria: 100
monochoria; 250 g ai/ha
  Plant response rating, Monochoria: 100
redstem; 32 g ai/ha
  Plant response rating, Redstem: 0
redstem; 64 g ai/ha
  Plant response rating, Redstem: 0
redstem; 125 g ai/ha
  Plant response rating, Redstem: 75
redstem; 250 g ai/ha
  Plant response rating, Redstem: 90
[1]; 125 g ai/ha
  Plant response rating, Rice, Transplanted: 15
[1]; 250 g ai/ha
  Plant response rating, Rice, Transplanted: 20
[2]; 64 g ai/ha
  Plant response rating, Rice, Water Seeded: 60
[2]; 125 g ai/ha
  Plant response rating, Rice, Water Seeded: 90
[2]; 250 g ai/ha
  Plant response rating, Rice, Water Seeded: 100
sedge, umbrella; 32 g ai/ha
  Plant response rating, Sedge, Umbrella: 0
sedge, umbrella; 64 g ai/ha
  Plant response rating, Sedge, Umbrella: 20
sedge, umbrella; 125 g ai/ha
  Plant response rating, Sedge, Umbrella: 35
sedge, umbrella; 250 g ai/ha
  Plant response rating, Sedge, Umbrella: 100
Bearded sprangletop; 32 g ai/ha
  Plant response rating, Sprangletop, Brdd.: 70
Bearded sprangletop; 64 g ai/ha
  Plant response rating, Sprangletop, Brdd.: 80
Bearded sprangletop; 125 g ai/ha
  Plant response rating, Sprangletop, Brdd.: 90
Bearded sprangletop; 250 g ai/ha
  Plant response rating, Sprangletop, Brdd.: 100
Late watergrass; 32 g ai/ha
  Plant response rating, Watergrass, Late: 0
Late watergrass; 64 g ai/ha
  Plant response rating, Watergrass, Late: 0
Late watergrass; 125 g ai/ha
  Plant response rating, Watergrass, Late: 0
Late watergrass; 250 g ai/ha
  Plant response rating, Watergrass, Late: 70
